Results as given in the supplement of paper PMC10307832.

Tests used:
Assay in all cases: relative viability (nuclei count vs DMSO), 5 days (fraction); higher = more cells survive
Neratinib + OSI-027 = compound: CCOc1cc2ncc(C#N)c(Nc3ccc(OCc4ccccn4)c(Cl)c3)c2cc1NC(=O)/C=C/CN(C)C [Neratinib] + COc1cccc2cc(-c3nc([C@H]4CC[C@H](C(=O)O)CC4)n4ncnc(N)c34)[nH]c12 [OSI-027] (partner 0.5 µM)
Procedure, shortened: (§1)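 A single step with final 0.05% Triton X-100, 1% formaldehyde and 1 ug/ml Hoechst fixed the cells and stained nuclei 5 days after treatment. Lung cancer cell lines in 1536-well plates had been treated by pin tool the day after seeding with one drug alone or a fixed anchor-drug dose plus five library-drug doses (not always all listed) in √10 steps, and nuclei were counted on 4× images. Relative viability is the ratio of nuclei in treated wells to nuclei in vehicle wells, taken as the median of duplicate plates.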

Neratinib + Linsitinib = compound: CCOc1cc2ncc(C#N)c(Nc3ccc(OCc4ccccn4)c(Cl)c3)c2cc1NC(=O)/C=C/CN(C)C [Neratinib] + C[C@]1(O)C[C@@H](c2nc(-c3ccc4ccc(-c5ccccc5)nc4c3)c3c(N)nccn32)C1 [Linsitinib] (partner 1 µM)
Procedure, shortened: as §1

Neratinib + Tozasertib = compound: CCOc1cc2ncc(C#N)c(Nc3ccc(OCc4ccccn4)c(Cl)c3)c2cc1NC(=O)/C=C/CN(C)C [Neratinib] + Cc1cc(Nc2cc(N3CCN(C)CC3)nc(Sc3ccc(NC(=O)C4CC4)cc3)n2)n[nH]1 [Tozasertib] (partner 0.1 µM)
Procedure, shortened: as §1

Neratinib + Crizotinib = compound: CCOc1cc2ncc(C#N)c(Nc3ccc(OCc4ccccn4)c(Cl)c3)c2cc1NC(=O)/C=C/CN(C)C [Neratinib] + C[C@@H](Oc1cc(-c2cnn(C3CCNCC3)c2)cnc1N)c1c(Cl)ccc(F)c1Cl [Crizotinib] (partner 1 µM)
Procedure, shortened: as §1

Cell Line | relative viability (Neratinib + OSI-027; first compound 0.03162 µM) | relative viability (Neratinib + OSI-027; first compound 0.1 µM) | relative viability (Neratinib + OSI-027; first compound 0.3162 µM) | relative viability (Neratinib + OSI-027; first compound 1 µM) | relative viability (Neratinib + Linsitinib; first compound 0.01 µM) | relative viability (Neratinib + Linsitinib; first compound 0.03162 µM) | relative viability (Neratinib + Linsitinib; first compound 0.1 µM) | relative viability (Neratinib + Linsitinib; first compound 0.3162 µM) | relative viability (Neratinib + Linsitinib; first compound 1 µM) | relative viability (Neratinib + Tozasertib; first compound 0.03162 µM) | relative viability (Neratinib + Tozasertib; first compound 0.1 µM) | relative viability (Neratinib + Tozasertib; first compound 0.3162 µM) | relative viability (Neratinib + Tozasertib; first compound 1 µM) | relative viability (Neratinib + OSI-027; first compound 0.01 µM) | relative viability (Neratinib + Tozasertib; first compound 0.01 µM) | relative viability (Neratinib + Crizotinib; first compound 0.01 µM) | relative viability (Neratinib + Crizotinib; first compound 0.03162 µM) | relative viability (Neratinib + Crizotinib; first compound 0.1 µM) | relative viability (Neratinib + Crizotinib; first compound 0.3162 µM) | relative viability (Neratinib + Crizotinib; first compound 1 µM)
NCI-H1395 | 0.748 | 0.632 | 0.623 | 0.468 | 1.13 | 1.24 | 0.991 | 1.2 | 0.619 | 0.76 | 0.688 | 0.73 | 0.519 |  |  |  |  |  |  | 
SW 900 | 0.604 | 0.621 | 0.574 | 0.385 |  |  |  |  |  | 0.444 | 0.673 | 0.517 | 0.387 | 0.597 | 0.561 |  |  |  |  | 
NCI-H520 | 0.253 | 0.261 | 0.234 | 0.178 | 1.04 | 0.981 | 1.08 | 0.742 |  | 0.418 | 0.401 | 0.433 | 0.33 | 0.288 | 0.455 | 0.908 | 0.929 | 0.773 | 0.689 | 0.429
A549 |  |  |  |  | 0.614 | 0.547 | 0.468 | 0.391 | 0.365 |  |  |  |  |  |  | 1 | 0.796 | 0.713 | 0.68 | 0.187
IA-LM |  |  |  |  | 0.537 | 0.87 | 0.581 | 0.541 | 0.628 |  |  |  |  |  |  | 0.981 | 0.799 | 0.681 | 0.766 | 0.536
EKVX | 0.693 | 0.656 | 0.365 | 0.195 | 1.12 | 0.85 | 0.842 | 0.276 | 0.141 | 0.42 | 0.345 | 0.197 | 0.13 | 0.712 | 0.416 | 1.32 | 1.08 | 0.823 | 0.452 | 0.211
ChaGo-K-1 | 0.545 | 0.574 | 0.459 | 0.613 |  |  |  |  |  | 0.224 | 0.221 | 0.215 | 0.229 | 0.62 | 0.233 | 1.3 | 1.24 | 1.14 | 1.02 | 0.845
NCI-H1755 | 0.785 | 0.721 | 0.695 | 0.528 | 1.04 | 0.988 | 0.911 | 1.05 | 0.775 | 0.617 | 0.613 | 0.515 | 0.543 | 0.795 | 0.619 | 0.873 | 0.919 | 0.752 | 0.912 | 0.476
NCI-H23 | 0.664 | 0.561 | 0.504 | 0.296 | 0.62 |  | 0.486 | 0.552 | 0.398 | 0.342 | 0.33 | 0.298 | 0.215 | 0.717 | 0.371 | 0.697 | 0.572 | 0.413 | 0.486 | 0.27
NCI-H2126 | 0.688 | 0.69 | 0.649 | 0.447 | 0.693 | 0.719 | 0.581 | 0.654 | 0.38 | 0.857 | 0.794 | 0.673 | 0.397 | 0.697 | 0.851 | 1.05 | 1.03 | 1.03 | 1.06 | 0.51
